Source: patent US9695155B2, “Herbicidal substituted pyrimidinyloxy benzene compounds” (E. I. DU PONT DE NEMOURS AND COMPANY, priority 2013, dated 2017)

Legend:
morningglory [1] = test: Test A preemergence; type: in vivo, Ipomoea spp.; conditions: for Morningglory plant response rating (0 to 100 scale): 125 g ai/ha
Method in brief: (§1)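 Compounds in non-phytotoxic solvent with surfactant applied as soil spray preemergence, or postemergence to plants 2-10 cm at one- to two-leaf stage, in loam/sand. After approximately 10 days in greenhouse, injury rated visually versus untreated controls, 0 (no effect) to 100 (complete control).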

giant foxtail [2] = test: Test A preemergence; type: in vivo, Setaria faberii; conditions: 0 to 100 scale where 0 is no effect and 100 is complete control; for Plant response rating, Foxtail, Giant: 125 g ai/ha; for Foxtail, Giant plant response rating: 500 g ai/ha
Method in brief: as §1

corn [3] = test: Test A postemergence; type: in vivo, Zea mays; conditions: 0 to 100 scale where 0 is no effect and 100 is complete control; for Corn plant response rating: 125 g ai/ha; for Plant response rating, Corn: 500 g ai/ha
Method in brief: as §1

barnyardgrass [4] = test: Test A preemergence; type: in vivo, Echinochloa crus-galli; conditions: 0 to 100 scale where 0 is no effect and 100 is complete control; for Plant response rating, Barnyardgrass: 125 g ai/ha; for Barnyardgrass plant response rating: 500 g ai/ha
Method in brief: as §1

corn [5] = test: Test A preemergence; type: in vivo, Zea mays; conditions: 0 to 100 scale where 0 is no effect and 100 is complete control; for Plant response rating, Corn: 125 g ai/ha; for Corn plant response rating: 500 g ai/ha
Method in brief: as §1

large (Lg) crabgrass [6] = test: Test A preemergence; type: in vivo, Digitaria sanguinalis; conditions: 0 to 100 scale where 0 is no effect and 100 is complete control; for Plant response rating, Crabgrass, Large: 125 g ai/ha; for Crabgrass, Large plant response rating: 500 g ai/ha
Method in brief: as §1

pigweed [7] = test: Test A preemergence; type: in vivo, Amaranthus retroflexus; conditions: for Pigweed plant response rating (0 to 100 scale): 125 g ai/ha; for Pigweed plant response rating: 500 g ai/ha, 0 to 100 scale where 0 is no effect and 100 is complete control
Method in brief: as §1

giant foxtail [8] = test: Test A postemergence; type: in vivo, Setaria faberii; conditions: 0 to 100 scale where 0 is no effect and 100 is complete control; for Foxtail, Giant plant response rating: 125 g ai/ha; for Plant response rating, Foxtail, Giant: 500 g ai/ha
Method in brief: as §1

barnyardgrass [9] = test: Test B flooded paddy test; type: in vivo, Echinochloa crus-galli; conditions: Flood, 250 g ai/ha; 0 to 100 scale where 0 is no effect and 100 is complete control
Method in brief: (§2)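 Plants were grown to the 2-leaf stage, then pots were flooded to 3 cm above the soil and compounds were applied directly into the paddy water. That depth was held throughout, and after 13 to 15 days in the greenhouse injury was rated visually against controls on a 0–100 scale (0 no effect, 100 complete control).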

velvetleaf [10] = test: Test A preemergence; type: in vivo, Abutilon theophrasti; conditions: for Velvetleaf plant response rating (0 to 100 scale): 125 g ai/ha; for Velvetleaf plant response rating: 500 g ai/ha, 0 to 100 scale where 0 is no effect and 100 is complete control
Method in brief: as §1

sedge, umbrella = test: Test B flooded paddy test; type: in vivo, Cyperus difformis; conditions: Flood, 250 g ai/ha; 0 to 100 scale where 0 is no effect and 100 is complete control
Method in brief: as §2

pigweed [11] = test: Test A postemergence; type: in vivo, Amaranthus retroflexus; conditions: 0 to 100 scale where 0 is no effect and 100 is complete control; for Pigweed plant response rating: 125 g ai/ha; for Plant response rating, Pigweed: 500 g ai/ha
Method in brief: as §1

large (Lg) crabgrass [12] = test: Test A postemergence; type: in vivo, Digitaria sanguinalis; conditions: 0 to 100 scale where 0 is no effect and 100 is complete control; for Crabgrass, Large plant response rating: 125 g ai/ha; for Plant response rating, Crabgrass, Large: 500 g ai/ha
Method in brief: as §1

Heteranthera limosa = test: Test B flooded paddy test; type: in vivo; conditions: Flood, 250 g ai/ha; 0 to 100 scale where 0 is no effect and 100 is complete control
Method in brief: as §2

wheat [13] = test: Test A postemergence; type: in vivo, Triticum aestivum; conditions: 0 to 100 scale where 0 is no effect and 100 is complete control; for Wheat plant response rating: 125 g ai/ha; for Plant response rating, Wheat: 500 g ai/ha
Method in brief: as §1

rice = test: Test B flooded paddy test; type: in vivo, Oryza sativa; conditions: Flood, 250 g ai/ha; 0 to 100 scale where 0 is no effect and 100 is complete control
Method in brief: as §2

morningglory [14] = test: Test A postemergence; type: in vivo, Ipomoea spp.; conditions: 0 to 100 scale where 0 is no effect and 100 is complete control; for Morningglory plant response rating: 125 g ai/ha; for Plant response rating, Morningglory: 500 g ai/ha
Method in brief: as §1

barnyardgrass [15] = test: Test A postemergence; type: in vivo, Echinochloa crus-galli; conditions: 0 to 100 scale where 0 is no effect and 100 is complete control; for Barnyardgrass plant response rating: 125 g ai/ha; for Plant response rating, Barnyardgrass: 500 g ai/ha
Method in brief: as §1

velvetleaf [16] = test: Test A postemergence; type: in vivo, Abutilon theophrasti; conditions: 0 to 100 scale where 0 is no effect and 100 is complete control; for Velvetleaf plant response rating: 125 g ai/ha; for Plant response rating, Velvetleaf: 500 g ai/ha
Method in brief: as §1

wheat [17] = test: Test A preemergence; type: in vivo, Triticum aestivum; conditions: for Wheat plant response rating (0 to 100 scale): 125 g ai/ha; for Wheat plant response rating: 500 g ai/ha, 0 to 100 scale where 0 is no effect and 100 is complete control
Method in brief: as §1

## O=Cc1cccc(Oc2ncc(F)cn2)c1-n1cc(C(F)(F)F)cn1 [Compound 162]
Morningglory [1]
  Morningglory plant response rating (0 to 100 scale): 0
Morningglory [1]; 500 g ai/ha, 0 to 100 scale where 0 is no effect and 100 is complete control
  Morningglory plant response rating: 0
Giant foxtail [2]
  Plant response rating, Foxtail, Giant: 0
  Foxtail, Giant plant response rating: 0
Corn [3]
  Corn plant response rating: 0
  Plant response rating, Corn: 10
Barnyardgrass [4]
  Plant response rating, Barnyardgrass: 10
  Barnyardgrass plant response rating: 50
Corn [5]
  Plant response rating, Corn: 0
  Corn plant response rating: 0
Large (Lg) crabgrass [6]
  Plant response rating, Crabgrass, Large: 0
  Crabgrass, Large plant response rating: 10
Pigweed [7]
  Pigweed plant response rating (0 to 100 scale): 100
  Pigweed plant response rating: 100
Giant foxtail [8]
  Foxtail, Giant plant response rating: 0
  Plant response rating, Foxtail, Giant: 0
Barnyardgrass [9]
  Plant response rating, Barnyardgrass: 0
Velvetleaf [10]
  Velvetleaf plant response rating (0 to 100 scale): 10
  Velvetleaf plant response rating: 50
sedge, umbrella
  Plant response rating, Sedge, Umbrella: 40
Pigweed [11]
  Pigweed plant response rating: 30
  Plant response rating, Pigweed: 70
Large (Lg) crabgrass [12]
  Crabgrass, Large plant response rating: 0
  Plant response rating, Crabgrass, Large: 10
Heteranthera limosa
  Plant response rating, Ducksalad: 35
Wheat [13]
  Wheat plant response rating: 0
  Plant response rating, Wheat: 0
rice
  Plant response rating, Rice: 0
Morningglory [14]
  Morningglory plant response rating: 0
  Plant response rating, Morningglory: 10
Barnyardgrass [15]
  Barnyardgrass plant response rating: 0
  Plant response rating, Barnyardgrass: 10
Velvetleaf [16]
  Velvetleaf plant response rating: 10
  Plant response rating, Velvetleaf: 50
Wheat [17]
  Wheat plant response rating (0 to 100 scale): 0
  Wheat plant response rating: 0

## N#Cc1cccc(Oc2ncc(Br)cn2)c1-n1cccn1 [Compound 165]
Morningglory [1]
  Morningglory plant response rating (0 to 100 scale): 0
Giant foxtail [2]
  Plant response rating, Foxtail, Giant: 20
  Foxtail, Giant plant response rating: 90
Corn [3]
  Corn plant response rating: 0
  Plant response rating, Corn: 0
Barnyardgrass [4]
  Plant response rating, Barnyardgrass: 0
  Barnyardgrass plant response rating: 20
Corn [5]
  Plant response rating, Corn: 0
  Corn plant response rating: 0
Large (Lg) crabgrass [6]
  Plant response rating, Crabgrass, Large: 50
  Crabgrass, Large plant response rating: 90
Pigweed [7]
  Pigweed plant response rating (0 to 100 scale): 60
  Pigweed plant response rating: 90
Giant foxtail [8]
  Foxtail, Giant plant response rating: 10
  Plant response rating, Foxtail, Giant: 20
Barnyardgrass [9]
  Plant response rating, Barnyardgrass: 0
Velvetleaf [10]
  Velvetleaf plant response rating (0 to 100 scale): 10
  Velvetleaf plant response rating: 20
sedge, umbrella
  Plant response rating, Sedge, Umbrella: 0
Pigweed [11]
  Pigweed plant response rating: 30
  Plant response rating, Pigweed: 80
Large (Lg) crabgrass [12]
  Crabgrass, Large plant response rating: 0
  Plant response rating, Crabgrass, Large: 10
Heteranthera limosa
  Plant response rating, Ducksalad: 0
Wheat [13]
  Wheat plant response rating: 0
  Plant response rating, Wheat: 0
rice
  Plant response rating, Rice: 0
Morningglory [14]
  Morningglory plant response rating: 10
  Plant response rating, Morningglory: 20
Barnyardgrass [15]
  Barnyardgrass plant response rating: 0
  Plant response rating, Barnyardgrass: 0
Velvetleaf [16]
  Velvetleaf plant response rating: 10
  Plant response rating, Velvetleaf: 30
Wheat [17]
  Wheat plant response rating (0 to 100 scale): 0
  Wheat plant response rating: 0
